The numbers were not newly measured in US20130146496A1, “SOLID PHARMACEUTICAL FORMULATIONS OF RAMIPRIL AND AMLODIPINE BESYLATE, AND THEIR PREPARATION” (priority 2010, published 2013), which cites them from elsewhere.

The conditions of data set [1]: in vivo.

As to `CCOC(=O)C1=C(COCCN)NC(C)=C(C(=O)OC)C1c1ccccc1Cl` (racemic) [Amlodipine besylate, 3-ethyl-5-methyl-(+-)-2-[(2-aminoethoxy)methyl]-4-(2-chlorophenyl)-1,4-dihydro-6-methylpyridine-3,5-dicarboxylate], the solubility in water result is on record as “slightly soluble”. The absolute bioavailability in data set [1] is 64-90%.
